US12617795B2, “Substituted 6,7-dihydro-5H-pyrrolo[3,4-d]pyrimidines, 5,7-dihydrofuro[3,4-d]pyrimidines, and pyrido[2,3-d]pyrimidines as KCC2 modulators” (Astrazeneca AB, priority 2020, dated 2026)

target: T1, KCC2 (Homo sapiens, UniProt Q9H2X9); experiment: KCC2 thallium transport FLIPR-based assay (Tl+ influx in HEK293 cells expressing KCC2); assay type: cell-based; settings: 90 min compound incubation at RT, thallium flux at 120 s used to determine EC50
T1 construct: expressed in transfected cells; host or cells: HEK293 cells electroporated (Maxcyte STX) with the pcDNA3.1 KCC2 plasmid
T1 sequence (Q9H2X9 1-1139): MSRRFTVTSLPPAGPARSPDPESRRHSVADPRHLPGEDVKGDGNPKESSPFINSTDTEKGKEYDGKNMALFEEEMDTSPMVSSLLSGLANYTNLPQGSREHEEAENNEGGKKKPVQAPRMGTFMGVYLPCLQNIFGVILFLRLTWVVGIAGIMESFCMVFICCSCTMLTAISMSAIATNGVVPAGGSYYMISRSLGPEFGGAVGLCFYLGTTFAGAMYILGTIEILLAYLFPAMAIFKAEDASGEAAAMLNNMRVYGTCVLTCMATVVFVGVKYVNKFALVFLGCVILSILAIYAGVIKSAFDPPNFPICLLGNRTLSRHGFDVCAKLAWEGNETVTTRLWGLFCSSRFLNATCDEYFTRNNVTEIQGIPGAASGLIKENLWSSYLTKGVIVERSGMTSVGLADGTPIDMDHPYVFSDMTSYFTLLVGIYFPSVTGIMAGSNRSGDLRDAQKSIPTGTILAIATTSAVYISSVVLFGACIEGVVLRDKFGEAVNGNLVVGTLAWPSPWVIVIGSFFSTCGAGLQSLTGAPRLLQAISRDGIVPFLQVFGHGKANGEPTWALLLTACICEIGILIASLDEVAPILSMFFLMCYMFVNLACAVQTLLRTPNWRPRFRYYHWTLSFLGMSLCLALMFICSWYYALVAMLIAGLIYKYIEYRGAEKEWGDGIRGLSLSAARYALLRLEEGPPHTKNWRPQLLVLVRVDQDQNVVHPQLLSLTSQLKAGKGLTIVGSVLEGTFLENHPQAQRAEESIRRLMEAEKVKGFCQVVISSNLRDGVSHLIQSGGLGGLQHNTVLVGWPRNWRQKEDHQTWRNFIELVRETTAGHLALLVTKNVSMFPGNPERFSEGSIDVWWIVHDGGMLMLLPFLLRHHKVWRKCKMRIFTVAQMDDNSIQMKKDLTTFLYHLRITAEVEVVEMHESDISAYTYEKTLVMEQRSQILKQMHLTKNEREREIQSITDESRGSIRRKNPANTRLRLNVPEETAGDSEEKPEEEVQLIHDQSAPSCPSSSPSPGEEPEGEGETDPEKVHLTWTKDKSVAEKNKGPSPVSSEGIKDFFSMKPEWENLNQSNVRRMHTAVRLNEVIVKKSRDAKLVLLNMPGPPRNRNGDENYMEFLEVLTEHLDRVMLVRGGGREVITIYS
How it was run: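 Transient electroporation of codon-optimised human KCC2 into HEK293 cells, plated and cultured 48 h before dye loading (1 h, RT). Compounds run as a 12-point 1:2 series from 100 μM top, 90 min RT in buffer containing bumetanide; Tl+ flux read by FLIPR after stimulus addition, 1 s intervals over 120 s, with the 120 s signal used for EC50.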

| EC50 | Compound |
| --- | --- |
| 6.34 µM | CC(C)N1Cc2nc(N3CCOCC3)nc(Nc3ccc(C4CCCCC4)cc3)c2C1 [Example 109, N-(4-cyclohexylphenyl)-6-isopropyl-2-morpholino-6,7-dihydro-5H-pyrrolo[3,4-d]pyrimidin-4-amine] |
| 0.7 µM | COC(=O)c1cnc2nc(N3CCO[C@H](C)C3)nc(Nc3ccc(C4CCCCC4)cc3)c2c1 [Example 102, methyl (R)-4-((4-cyclohexylphenyl)amino)-2-(2-methylmorpholino) pyrido[2,3-d]pyrimidine-6-carboxylate] |
| 6.3 µM | CC(C)N1Cc2c(Nc3ccc(C4CCCCC4)cc3)nc(-c3cnco3)nc2C1=O [Example 48, 4-[(4-cyclohexylphenyl)amino]-2-(1,3-oxazol-5-yl)-6-(propan-2-yl)-5,6-dihydro-7H-pyrrolo[3,4-d]pyrimidin-7-one] |
| 6.3 µM | CC(C)N1Cc2c(Nc3ccc(C4CCCCC4)cc3)nc(-c3cncs3)nc2C1=O [Example 49, 4-[(4-cyclohexylphenyl)amino]-6-(propan-2-yl)-2-(1,3-thiazol-5-yl)-5,6-dihydro-7H-pyrrolo[3,4-d]pyrimidin-7-one] |
| 3 µM | CC(C)c1ccc(Nc2nc(N3CCSC3)nc3c2CN(C(C)C)C3=O)cc1 [Example 3, 6-(propan-2-yl)-4-{[4-(propan-2-yl)phenyl]amino}-2-(1,3-thiazolidin-3-yl)-5,6-dihydro-7H-pyrrolo[3,4-d]pyrimidin-7-one] |
| 0.901 µM | Cc1cc(-c2nc(Nc3ccc(C4CCCCC4)cc3)c3c(n2)C(=O)N(C(C)C)C3)ccn1 [Example 44, 4-[(4-cyclohexylphenyl)amino]-2-(2-methylpyridin-4-yl)-6-(propan-2-yl)-5,6-dihydro-7H-pyrrolo[3,4-d]pyrimidin-7-one] |
| 3.5 µM | COC1CCN(c2nc(Nc3ccc(C4CCCCC4)cc3)c3c(n2)C(=O)N(C(C)C)C3)C1 (centres unmarked) [Example 26, 4-[(4-cyclohexylphenyl)amino]-2-(3-methoxypyrrolidin-1-yl)-6-(propan-2-yl)-5,6-dihydro-7H-pyrrolo[3,4-d]pyrimidin-7-one] |
| 2.37 µM | c1cc(C2CCCCC2)ccc1Nc1nc(N2CCOC(C3CC3)C2)nc2c1COC2 (centres unmarked) [Example 92, N-(4-cyclohexylphenyl)-2-(2-cyclopropyl-morpholin-4-yl)-5,7-dihydrofuro[3,4-d]pyrimidin-4-amine] |
| 3.28 µM | CCC(C)c1ccc(Nc2nc(N3CCO[C@H](C)C3)nc3c2CN(C(C)C)C3=O)cc1 (stereo partly drawn) [Example 56, 4-{[4-(butan-2-yl)phenyl]amino}-2-[(2R)-2-methylmorpholin-4-yl]-6-(propan-2-yl)-5,6-dihydro-7H-pyrrolo[3,4-d]pyrimidin-7-one] |
| 2.92 µM | CC(C)N1Cc2c(Nc3ccc(C4CCCCC4)cc3)nc(N3CCCOCC3)nc2C1=O [Example 24, 4-[(4-cyclohexylphenyl)amino]-2-(1,4-oxazepan-4-yl)-6-(propan-2-yl)-5,6-dihydro-7H-pyrrolo[3,4-d]pyrimidin-7-one] |
| 3.89 µM | CCCN(CCC)c1nc(Nc2ccc(C3CCCCC3)cc2)c2c(n1)C(=O)N(C(C)C)C2 [Example 29, 4-[(4-cyclohexylphenyl)amino]-2-(dipropylamino)-6-(propan-2-yl)-5,6-dihydro-7H-pyrrolo[3,4-d]pyrimidin-7-one] |
| 7.98 µM | CC(C)c1ccc(Nc2nc(C3=CCOCC3)nc3c2CN(C(C)C)C3=O)cc1 [Example 50, 2-(3,6-dihydro-2H-pyran-4-yl)-6-(propan-2-yl)-4-{[4-(propan-2-yl)phenyl]amino}-5,6-dihydro-7H-pyrrolo[3,4-d]pyrimidin-7-one] |
| 6.3 µM | CC(C)N1Cc2c(Nc3ccc(C4CCCCC4)cc3)nc(N(C)CC(F)F)nc2C1=O [Example 36, 4-[(4-cyclohexylphenyl)amino]-2-[(2,2-difluoroethyl)(methyl)amino]-6-(propan-2-yl)-5,6-dihydro-7H-pyrrolo[3,4-d]pyrimidin-7-one] |
| 1.83 µM | C#CCCC1(CCOc2ccc(-c3ccc(Nc4nc(N5CCOCC5)nc5c4CN(C(C)C)C5=O)cc3)cc2)N=N1 [Example 70, 4-[(4′-{2-[3-(but-3-yn-1-yl)-3H-diaziren-3-yl]ethoxy}[1,1′-biphenyl]-4-yl)amino]-2-(morpholin-4-yl)-6-(propan-2-yl)-5,6-dihydro-7H-pyrrolo[3,4-d]pyrimidin-7-one] |
| 5.53 µM | C1=C(c2nc(Nc3ccc(C4CCCCC4)cc3)c3cccnc3n2)CCOC1 [Example 98, N-(4-cyclohexylphenyl)-2-(3,6-dihydro-2H-pyran-4-yl)pyrido[2,3-d]pyrimidin-4-amine] |
| 3.77 µM | C[C@@H]1CN(c2nc(Nc3ccc(C4CCC4)cc3)c3c(n2)C(=O)N(CCN(C)C)C3)CCO1 [Example 75, 4-[(4-cyclobutylphenyl)amino]-6-[2-(dimethylamino)ethyl]-2-[(2R)-2-methylmorpholin-4-yl]-5,6-dihydro-7H-pyrrolo[3,4-d]pyrimidin-7-one] |
| 4.05 µM | CC(C)N1Cc2c(Nc3ccc(C4CCCCC4)cc3)nc(N(C)CC3CC3)nc2C1=O [Example 30, 4-[(4-cyclohexylphenyl)amino]-2-[(cyclopropylmethyl)(methyl)amino]-6-(propan-2-yl)-5,6-dihydro-7H-pyrrolo[3,4-d]pyrimidin-7-one] |
| 3.08 µM | CC(C)N1Cc2c(Nc3ccc(C4CCCCC4)cc3)nc(C3CCOCC3)nc2C1=O [Example 78, 4-((4-cyclohexylphenyl)amino)-6-isopropyl-2-(tetrahydro-2H-pyran-4-yl)-5,6-dihydro-7H-pyrrolo[3,4-d]pyrimidin-7-one] |
| 2.92 µM | CC(C)N1Cc2c(Nc3ccc(C4CCCCC4)cc3)nc(N(C)CCc3ncon3)nc2C1=O [Example 23, 4-[(4-cyclohexylphenyl)amino]-2-{methyl[2-(1,2,4-oxadiazol-3-yl)ethyl]amino}-6-(propan-2-yl)-5,6-dihydro-7H-pyrrolo[3,4-d]pyrimidin-7-one] |
| 9.9 µM | CC(=O)NCCC1CN(c2nc(Nc3ccc(C4CCCCC4)cc3)c3c(n2)C(=O)N(C(C)C)C3)CCO1 (centres unmarked) [Example 39, N-[2-(4-{4-[(4-cyclohexylphenyl)amino]-7-oxo-6-(propan-2-yl)-6,7-dihydro-5H-pyrrolo[3,4-d]pyrimidin-2-yl}morpholin-2-yl)ethyl]acetamide] |
| 1.8 µM | Cc1ccccc1-c1ccc(Nc2nc(C3=CCOCC3)nc3c2CN(C(C)C)C3=O)cc1 [Example 80, 2-(3,6-dihydro-2H-pyran-4-yl)-6-isopropyl-4-((2′-methyl-[1,1′-biphenyl]-4-yl)amino)-5,6-dihydro-7H-pyrrolo[3,4-d]pyrimidin-7-one] |
| 9.34 µM | CC(C)N1Cc2c(Nc3ccc(C4CCCCC4)cc3)nc(N3CCOC[C@H]3C(=O)O)nc2C1=O [Example 38, (3S)-4-{4-[(4-cyclohexylphenyl)amino]-7-oxo-6-(propan-2-yl)-6,7-dihydro-5H-pyrrolo[3,4-d]pyrimidin-2-yl}morpholine-3-carboxylic acid] |
| 4.82 µM | CCCc1ccc(Nc2nc(N3CCO[C@H](C)C3)nc3c2CN(C(C)C)C3=O)cc1 [Example 60, 2-[(2R)-2-methylmorpholin-4-yl]-6-(propan-2-yl)-4-[(4-propylphenyl)amino]-5,6-dihydro-7H-pyrrolo[3,4-d]pyrimidin-7-one] |
| 1.94 µM | CCN1Cc2c(Nc3ccc(C4CCCCC4)cc3)nc(N3CCO[C@H](C)C3)nc2C1=O [Example 68, 4-[(4-cyclohexylphenyl)amino]-6-ethyl-2-[(2R)-2-methylmorpholin-4-yl]-5,6-dihydro-7H-pyrrolo[3,4-d]pyrimidin-7-one] |
| 1.35 µM | C[C@@H]1CN(c2nc(Nc3ccc(C4CCCCC4)cc3)c3cc(Br)cnc3n2)CCO1 [Example 97, 6-bromo-N-(4-cyclohexylphenyl)-2-[(2R)-2-methylmorpholin-4-yl]pyrido[2,3-d]pyrimidin-4-amine] |
| 5.21 µM | CCN(CC)c1nc(Nc2ccc(C3CCCCC3)cc2)c2c(n1)C(=O)N(C(C)C)C2 [Example 34, 4-[(4-cyclohexylphenyl)amino]-2-(diethylamino)-6-(propan-2-yl)-5,6-dihydro-7H-pyrrolo[3,4-d]pyrimidin-7-one] |
